Where “and” joins values, the source holds several entries; their conditions need not be identical. Identical values can stand only once. *1 amine or outer side, *2 acyl side, *3 side chain or, on linkers, in order; H or OH if unused. Where no end group is shown, it is not given here. [ ]: non-standard residue; d: D form. Benzoyl(5-NH,2-NO2) = O=C(c1cc(N[*:1])ccc1[N+](=O)[O-])[*:2]; 2Abz = Nc1ccccc1C(=O)O
Experiments:
Assay type in all cases: biochemical, human
[1] = tested on: proteolytic enzymes in urine from a subject suffering from biliary tract cancer; test: Absorbance measurement of substrate hydrolysis in urine from subjects with biliary tract cancer; conditions: for absorbance: 405 nm, pH 8.0, 37° C., 60 minutes, triplicate
Procedure: (§1) The activity of the novel compounds according to the invention was studied in a group of 20 subjects diagnosed with biliary tract cancer using the representative compound according to the invention. […] The remaining compounds according to the invention are characterized by the analogous mechanism of action. For this purpose, the representative compound according to the invention, ABZ^1-Glu^2-Arg^3-Arg^4-Ala^5-NH2, was dissolved in dimethyl sulfoxide (at a concentration of 0.5 mg/mL) and then 50 L of the solution was mixed with 120 L of a buffer (200 mM Tris-HCl, pH 8.0) and 80 L of urine from a subject suffering from biliary tract cancer. The measurement was performed on a 96-well plate designed for measuring absorbance and each sample was analysed in triplicate at the temperature of 37° C. The duration of the measurement was 60 minutes. During the measurement, the wavelength characteristic for the chromophore (ANB-NH2) being released was monitored at the wavelength 405 nm (range 380-430 nm).
The observed magnitude of increase in absorbance in time is different for each of the examined samples.
Such a result may be due to the difference in the activity as well as the amount of enzymes responsible for the enzymatic cleavage (proteolysis). […] The result indicates the absence of proteolytic enzymes specific/characteristic of biliary tract cancer.

[2] = tested on: urine samples taken from healthy persons; test: Absorbance measurement of substrate hydrolysis in urine from healthy subjects; conditions: for absorbance: 405 nm, pH 8.0, 37° C., 60 minutes, triplicate
[3] = tested on: urine samples from subjects with biliary tract cancer or another neoplastic disease; test: Selectivity of substrate cleavage in urine of patients with different cancer types; conditions: urine of patients with testicle, large intestine, kidney, prostate, pancreas, liver, lung, ovarian and rectum cancer
Source text: The samples tested for each type of cancer were derived from 20 different patients for each of the tested cancers. The results are mean values for given cancer types.
as §1
Furthermore, the dependence of the cleavage selectivity of the substrate, i.e. the compound according to the invention, on the cancer type being examined, was studied. […]

**Q.** How did the “cleavage of the substrate” value ([1]; all urine samples 1-13 from persons suffering from biliary tract cancer) turn out when “ABZ-Glu-Arg-Arg-Ala-ANB-NH2 ([2Abz]ERRA-{Benzoyl(5-NH,2-NO2)-NH2})” was run?
**A.** underwent cleavage

**Q.** And the absorbance ([1]; urine sample 1, biliary tract cancer)?
**A.** 0.004 and 0.002 and 0.003

**Q.** What about the absorbance ([1]; urine sample 2, biliary tract cancer) of the same substance?
**A.** 0.0068 and 0.0034 and 0.0053

**Q.** And the absorbance ([1]; urine sample 3, biliary tract cancer)?
**A.** 0.0035 and 0.005 and 0.0048

**Q.** And the absorbance ([1]; urine sample 4, biliary tract cancer)?
**A.** 0.004 and 0.0067 and 0.0051

**Q.** What about the absorbance ([1]; urine sample 6, biliary tract cancer) of the same substance?
**A.** 0.002 and 0.0021 and 0.0026

**Q.** What about the absorbance ([1]; urine sample 7, biliary tract cancer) of the same substance?
**A.** 0.084 and 0.092 and 0.087

**Q.** And the absorbance ([1]; urine sample 8, biliary tract cancer)?
**A.** 0.0746 and 0.0948 and 0.084

**Q.** What about the absorbance ([1]; urine sample 9, biliary tract cancer) of the same substance?
**A.** 0.053 and 0.0458 and 0.0497

**Q.** What about the absorbance ([1]; urine sample 10, biliary tract cancer) of the same substance?
**A.** 0.0436 and 0.035 and 0.041

**Q.** What about the absorbance ([1]; urine sample 11, biliary tract cancer) of the same substance?
**A.** 0.0051 and 0.0041 and 0.0048

**Q.** What about the absorbance ([1]; urine sample 12, biliary tract cancer) of the same substance?
**A.** 0.0025 and 0.0028 and 0.0032

**Q.** What about the absorbance ([1]; urine sample 13, biliary tract cancer) of the same substance?
**A.** 0.0046 and 0.005 and 0.0047

**Q.** What about the absorbance ([2]; urine sample 14, healthy subject) of the same substance?
**A.** 0.000000

**Q.** What about the absorbance ([2]; urine sample 15, healthy subject) of the same substance?
**A.** 0.000000

**Q.** What about the absorbance ([2]; urine sample 16, healthy subject) of the same substance?
**A.** 0.000000

**Q.** And the absorbance ([2]; urine sample 17, healthy subject)?
**A.** 0.000000

**Q.** What about the absorbance ([2]; urine sample 18, healthy subject) of the same substance?
**A.** 0.000000

**Q.** And the absorbance ([2]; urine sample 19, healthy subject)?
**A.** 0.000000

**Q.** What about the absorbance ([2]; urine sample 20, healthy subject) of the same substance?
**A.** 0.000000

**Q.** What about the absorbance ([2]; urine sample 21, healthy subject) of the same substance?
**A.** 0.000000

**Q.** What about the absorbance ([2]; urine sample 22, healthy subject) of the same substance?
**A.** 0.000000

**Q.** And the absorbance ([2]; urine sample 23, healthy subject)?
**A.** 0.000000

**Q.** And the “increase in absorbance / hydrolysis” value ([2]; urine samples 14 to 23 from healthy persons)?
**A.** does not lead to an increase in absorbance

**Q.** And the “cleavage of the substrate / increase in absorbance” value [3]?
**A.** is not subject to cleavage

Reference: US20260226100A1, “Compound - Diagnostic Marker For Biliary Tract Cancer, Method For Detecting Enzymatic Activity, Method For Diagnosis Of Biliary Tract Cancer, Kit Comprising The Compound, Uses Of The Compound And Method For The Treatment Of Biliary Tract Cancer” (Urteste S.A., priority 2023, published 2026)
